# Columns and labels:
# [1] = test system: STZ-induced diabetic rats; assay: von Frey test in rat STZ-induced diabetes model; format: in vivo; settings: for 50% withdrawal threshold by von Frey test: mean ± SE, n=10
# Method: The activity of the compound of the present disclosure was evaluated according to the following procedure.
# (§1) Compound 9 (50 mg/mL) was diluted with water for injection to obtain a 1 mg/mL administration specimen. For the specimens to be administered at 0.1 mg/mL and 0.01 mg/mL, the specimen to be administered at 1 mg/mL was diluted stepwise with water for injection. Each administration specimen was divided into PP disposable tubes every day and stored in a storehouse (freezer: MDF-MU339H-PJ, PHC Corporation) under the condition of freezing (−30° C. to −20° C., measured value: −26.4 to −24.5° C.). Preparation was performed on the day before the start of administration.
# (§2) Water for injection was added to and dissolved in Pregabalin taken out from the capsule to obtain 2 mg/mL. It was prepared before use.
# (§3) • Animal species: rat (SPF) • Strain: Crl: CD (SD) • Date of animal acquisition, gender, age in weeks, number of animals acquired, and weight range after 1 day of acquisition • First and second courses: Apr. 6, 2022, male, 7 weeks old, 35 animals, 217 to 237 g • Third and fourth courses: Apr. 13, 2022, male, 7 weeks old, 35 animals, 216 to 235 g • Source: […].
# Among the animals having a 50% withdrawal threshold of 8 g or more in the von Frey test measured during the preliminary breeding period, two animals from young animals with animal numbers were assigned to non-diabetes-induced animals, and the remaining animals were assigned to diabetes-induced animals.
# Among the diabetes-induced animals, animals having a blood glucose level of 300 mg/dL or less were excluded from the grouping subjects, and were grouped using a computer program (IBUKI, Nihon Bioresearch Center, Inc.) so that the body weight and the average blood glucose level of each group were approximately equal. That is, the animals for the first and second courses and the third and fourth courses were grouped into one non-diabetes animal for Group 1, and 5 […] animals for Groups 2 to 6. Note that the grouping was performed so that there were 4 examples in Group 1 and 10 examples in each of Groups 2 to 6.
# • Administration method: Using a syringe (Terumo Corporation) equipped with a 25 G winged injection needle (Terumo Corporation), tail vein administration was performed. Note that a 0.75 mmol/L CAB solution was administered to a non-diabetes-induced control group.
# (§4) • Dose volume: calculated at 2 mL/kg based on the body weight on the day of administration. • Number of times of administration: once • Day of administration: 7 days before the day of starting administration of the test substance.
# • Administration method: Using a syringe (Terumo Corporation) equipped with a 25 G winged injection needle (Terumo Corporation), tail vein administration was performed. Note that physiological saline was administered to the non-diabetes control group and the diabetes control group.
# (§5) • Dose volume: calculated at 1 mL/kg based on the body weight on the day of administration. • Number of times of administration: 9 times • Interval of administration: once every 3 days (evaluation was performed on the day after administration) • Day of starting administration: day 8 of STZ administration (day of STZ administration is counted as day 1).
# • Administration method: Using a polypropylene disposable syringe (Terumo Corporation) equipped with a metal oral zonde for a rat (Fuchigami kikai Ltd.), forced oral administration was performed.
# • Dose volume: calculated at 10 mL/kg based on the body weight on the day of administration. • Number of times of administration: Administration was performed once on the day of evaluation of neuropathic pain, twice in total, and on the other days of administration, a vehicle for a control substance (water for injection) was orally administered. […]
# [2] = Body weight measurement in rat STZ-induced diabetes model; format: in vivo; settings: 20 mg/kg oral, mean ± SE, in g (unit assumed)
# Method: as §1, §2, §3, §4, §5
# • Dose volume: calculated at 10 mL/kg based on the body weight on the day of administration. • Number of times of administration: Administration was performed once on the day of evaluation of neuropathic pain, twice in total, and on the other days of administration, a vehicle for a control substance (water for injection) was orally administered.
# • Measurement was performed every day after the day of STZ administration.
# The mean and standard error of each group were calculated for the 50% withdrawal threshold, body weight, and blood glucose level.
# The body weight was an integer.
# No significant difference test of body weight and blood glucose levels was performed.
smiles,measurement,setting,value
"CC(C)C[C@H](CN)CC(=O)O [Pregabalin, reference compound]",50% withdrawal threshold by von Frey test,"[1]; 20 mg/kg oral group, Pre: before STZ administration",12.7 ± 0.7 g
same,50% withdrawal threshold by von Frey test,"[1]; 20 mg/kg oral, 3 hours after administration, day 14 of STZ administration",14.5 ± 0.5 g
same,50% withdrawal threshold by von Frey test,"[1]; 20 mg/kg oral, 3 hours after administration, day 28 of STZ administration",14.1 ± 0.7 g
same,change in the 50% withdrawal threshold (von Frey test),"[1]; 20 mg/kg oral, both 14 days and 28 days after STZ administration, as compared with the diabetes control group",significant increase
same,Body weight,[2]; day 1 of STZ administration,293 ± 5
same,Body weight,[2]; day 2 of STZ administration,278 ± 5
same,Body weight,[2]; day 3 of STZ administration,272 ± 5
same,Body weight,[2]; day 4 of STZ administration,275 ± 4
same,Body weight,[2]; day 5 of STZ administration,280 ± 4
same,Body weight,[2]; day 6 of STZ administration,282 ± 4
same,Body weight,[2]; day 7 of STZ administration,288 ± 4
same,Body weight,[2]; day 8 of STZ administration,285 ± 4
same,Body weight,[2]; day 9 of STZ administration,289 ± 4
same,Body weight,[2]; day 10 of STZ administration,291 ± 5
same,Body weight,[2]; day 11 of STZ administration,297 ± 4
same,Body weight,[2]; day 12 of STZ administration,297 ± 5
same,Body weight,[2]; day 13 of STZ administration,298 ± 5
same,Body weight,[2]; day 14 of STZ administration,302 ± 6
same,Body weight,[2]; day 15 of STZ administration,297 ± 4
same,Body weight,[2]; day 16 of STZ administration,300 ± 5
same,Body weight,[2]; day 17 of STZ administration,304 ± 5
same,Body weight,[2]; day 18 of STZ administration,303 ± 5
same,Body weight,[2]; day 19 of STZ administration,302 ± 6
same,Body weight,[2]; day 20 of STZ administration,308 ± 5
same,Body weight,[2]; day 21 of STZ administration,305 ± 6
same,Body weight,[2]; day 22 of STZ administration,309 ± 5
same,Body weight,[2]; day 23 of STZ administration,307 ± 7
same,Body weight,[2]; day 24 of STZ administration,305 ± 7
same,Body weight,[2]; day 25 of STZ administration,307 ± 6
same,Body weight,[2]; day 26 of STZ administration,309 ± 6
same,Body weight,[2]; day 27 of STZ administration,304 ± 7
same,Body weight,[2]; day 28 of STZ administration,307 ± 7
same,Body weight,[2]; day 29 of STZ administration,302 ± 7
same,Body weight,[2]; day 30 of STZ administration,302 ± 7
same,Body weight,[2]; day 31 of STZ administration,304 ± 8
same,Body weight,[2]; day 32 of STZ administration,305 ± 8
same,Body weight,[2]; day 33 of STZ administration,307 ± 8
same,Body weight,[2]; day 34 of STZ administration,306 ± 7
same,Body weight,[2]; day 35 of STZ administration,307 ± 7
